Results as given in US11014929B2, “Pyrazolopyrimidine compounds and uses thereof” (Incyte Corporation, priority 2016, dated 2021).
pKi: −log10 of the molar value.

Target: HPK1 (Homo sapiens (Human), UniProt Q92918)
Assay: HPK1 Kinase Binding Assay
Conditions: LanthaScreen tracer 222 binding, active HPK1, one hour incubation at 25° C.
Procedure, shortened: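 This is a LanthaScreen tracer-binding format: a tracer 222/Eu-anti-GST antibody mix (18 nM and 4 nM solution) is added to active HPK1 (4 nM solution) with 3-fold, 11-point compound dilutions. Incubation is 1 h at 25 °C in HEPES pH 7.5 buffer before reading, and Ki is determined.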

HPK1, sequence (Q92918 1-346): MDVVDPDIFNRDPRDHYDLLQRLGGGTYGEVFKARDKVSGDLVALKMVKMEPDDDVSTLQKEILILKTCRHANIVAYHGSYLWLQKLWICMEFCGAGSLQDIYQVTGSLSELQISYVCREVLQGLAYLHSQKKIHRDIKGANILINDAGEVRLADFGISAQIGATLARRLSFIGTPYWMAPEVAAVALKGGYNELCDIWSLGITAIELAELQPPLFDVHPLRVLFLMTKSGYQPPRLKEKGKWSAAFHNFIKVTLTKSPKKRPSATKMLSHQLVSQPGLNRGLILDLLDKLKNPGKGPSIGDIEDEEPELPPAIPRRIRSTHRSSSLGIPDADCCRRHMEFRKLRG

SMILES | pKi
O=S(=O)(c1ccc(-c2n[nH]c3cnc(-c4c(F)cc5c(c4F)CNCC5)nc23)cc1)N1CCC1 [Example 96, 7-(3-(4-(Azetidin-1-ylsulfonyl)phenyl)-1H-pyrazolo[4,3-d]pyrimidin-5-yl)-6,8-difluoro-1,2,3,4-tetrahydroisoquinoline] | ≥ 7.00
COc1cccc(F)c1-c1ncc2[nH]nc(-c3ccc(C4CCOCC4)cc3)c2n1 [Example 43, 5-(2-Fluoro-6-methoxyphenyl)-3-(4-(tetrahydro-2H-pyran-4-yl)phenyl)-1H-pyrazolo[4,3-d]pyrimidine] | ≥ 7.00
CNCc1cc(F)c(-c2ncc3[nH]nc(-c4ccnc(N5CCOCC5)c4F)c3n2)c(F)c1 [Example 69, 1-(3,5-Difluoro-4-(3-(3-fluoro-2-morpholinopyridin-4-yl)-1H-pyrazolo[4,3-d]pyrimidin-5-yl)phenyl)-N-methylmethanamine] | ≥ 7.00
COc1cccc(F)c1-c1ncc2[nH]nc(-c3cccc(CN4CCN(C)CC4)c3)c2n1 [Example 25, 5-(2-Fluoro-6-methoxyphenyl)-3-(3-((4-methylpiperazin-1-yl)methyl)phenyl)-1H-pyrazolo[4,3-d]pyrimidine] | ≥ 7.00
NC1CCc2cc(F)c(-c3ncc4[nH]nc(-c5ccc(N6CCOCC6)nc5)c4n3)c(F)c21 (centres unmarked) [Example 118, 5,7-Difluoro-6-(3-(6-morpholinopyridin-3-yl)-1H-pyrazolo[4,3-d]pyrimidin-5-yl)-2,3-dihydro-1H-inden-1-amine] | ≥ 7.00
COc1cccc(F)c1-c1ncc2[nH]nc(-c3ccc(CC#N)cc3)c2n1 [Example 34, 2-(4-(5-(2-Fluoro-6-methoxyphenyl)-1H-pyrazolo[4,3-d]pyrimidin-3-yl)phenyl)acetonitrile] | ≥ 7.00
COc1cccc(F)c1-c1ncc2[nH]nc(OCc3ccccc3)c2n1 [Example 89, 3-(Benzyloxy)-5-(2-fluoro-6-methoxyphenyl)-1H-pyrazolo[4,3-d]pyrimidine] | ≥ 7.00
CN1CCN(c2ccc(-c3n[nH]c4cnc(-c5ccc6cccnc6c5F)nc34)cc2)CC1 [Example 101, 8-Fluoro-7-(3-(4-(4-methylpiperazin-1-yl)phenyl)-1H-pyrazolo[4,3-d]pyrimidin-5-yl)quinoline] | ≥ 7.00
COc1cccc(F)c1-c1ncc2[nH]nc(-c3ccc(C4(N5CCOCC5)CC4)cc3)c2n1 [Example 33, 4-(1-(4-(5-(2-Fluoro-6-methoxyphenyl)-1H-pyrazolo[4,3-d]pyrimidin-3-yl)phenyl)cyclopropyl)morpholine] | 6.30 to 7.00
COc1cccc(F)c1-c1ncc2[nH]nc(-c3ccc(C(=O)NC4CCCC4)cc3)c2n1 [Example 32, N-Cyclopentyl-4-(5-(2-fluoro-6-methoxyphenyl)-1H-pyrazolo[4,3-d]pyrimidin-3-yl)benzamide] | ≥ 7.00
CNC1CCc2c1cc(F)c(-c1ncc3[nH]nc(-c4cnc(N5CCN(C)CC5)nc4)c3n1)c2F (centres unmarked) [Example 114, 4,6-Difluoro-N-methyl-5-(3-(2-(4-methylpiperazin-1-yl)pyrimidin-5-yl)-1H-pyrazolo[4,3-d]pyrimidin-5-yl)-2,3-dihydro-1H-inden-1-amine] | ≥ 7.00
CN1CCN(c2ccc(-c3n[nH]c4cnc(-c5c(F)ccc6c5CCNC6)nc34)cc2)CC1 [Example 56, 6-Fluoro-5-(3-(4-(4-methylpiperazin-1-yl)phenyl)-1H-pyrazolo[4,3-d]pyrimidin-5-yl)-1,2,3,4-tetrahydroisoquinoline] | ≥ 7.00
CN(C)CC(=O)Nc1cc(F)c(-c2ncc3[nH]nc(-c4cnn(C)c4)c3n2)c(F)c1 [Example 83, N-(3,5-Difluoro-4-(3-(1-methyl-1H-pyrazol-4-yl)-1H-pyrazolo[4,3-d]pyrimidin-5-yl)phenyl)-2-(dimethylamino)acetamide] | ≥ 7.00
COc1c(-c2ncc3[nH]nc(-c4ccc(N5CCOCC5)nc4)c3n2)c(F)cc2c1C(N)CC2 (centres unmarked) [Example 119, 5-Fluoro-7-methoxy-6-(3-(6-morpholinopyridin-3-yl)-1H-pyrazolo[4,3-d]pyrimidin-5-yl)-2,3-dihydro-1H-inden-1-amine] | ≥ 7.00

Next, values leading:

pKi | SMILES
≥ 7.00 | CCN1CCN(c2ccc(-c3n[nH]c4cnc(-c5c(F)cc(CNC)cc5C(F)(F)F)nc34)cc2)CC1 [Example 124, 1-(4-(3-(4-(4-Ethylpiperazin-1-yl)phenyl)-1H-pyrazolo[4,3-d]pyrimidin-5-yl)-3-fluoro-5-(trifluoromethyl)phenyl)-N-methylmethanamine]
≥ 7.00 | CNCc1cc(F)c(-c2ncc3[nH]nc(-c4ccc(C5CCNCC5)cc4)c3n2)c(F)c1 [Example 65, 1-(3,5-Difluoro-4-(3-(4-(piperidin-4-yl)phenyl)-1H-pyrazolo[4,3-d]pyrimidin-5-yl)phenyl)-N-methylmethanamine]
≥ 7.00 | CNCc1cc(F)c(-c2ncc3[nH]nc(-c4ccc(N5CCN(CCO)CC5)cc4)c3n2)c(F)c1 [Example 73, 2-(4-(4-(5-(2,6-Difluoro-4-((methylamino)methyl)phenyl)-1H-pyrazolo[4,3-d]pyrimidin-3-yl)phenyl)piperazin-1-yl)ethanol]
≥ 7.00 | COc1cccc(F)c1-c1ncc2[nH]nc(-c3ccc(N4CCNCC4)nc3)c2n1 [Example 52, 5-(2-Fluoro-6-methoxyphenyl)-3-(6-(piperazin-1-yl)pyridin-3-yl)-1H-pyrazolo[4,3-d]pyrimidine]
≥ 7.00 | CCNCc1cc(F)c(-c2ncc3[nH]nc(-c4cnn(C)c4)c3n2)c(OC)c1 [Example 87, N-(3-Fluoro-5-methoxy-4-(3-(1-methyl-1H-pyrazol-4-yl)-1H-pyrazolo[4,3-d]pyrimidin-5-yl)benzyl)ethanamine]
6.30 to 7.00 | CNC(=O)c1cccc(-c2ncc3[nH]nc(-c4ccc(N5CCN(C)CC5)cc4)c3n2)c1F [Example 47, 2-Fluoro-N-methyl-3-(3-(4-(4-methylpiperazin-1-yl)phenyl)-1H-pyrazolo[4,3-d]pyrimidin-5-yl)benzamide]
≥ 7.00 | COc1cccc(F)c1-c1ncc2[nH]nc(-c3cccc(N(C)C)c3)c2n1 [Example 30, 3-(5-(2-Fluoro-6-methoxyphenyl)-1H-pyrazolo[4,3-d]pyrimidin-3-yl)-N,N-dimethylaniline]
≥ 7.00 | CN1CCN(Cc2ccc(-c3n[nH]c4cnc(-c5c(F)ccc6c5CCNC6)nc34)cc2)CC1 [Example 106, 6-Fluoro-5-(3-(4-((4-methylpiperazin-1-yl)methyl)phenyl)-1H-pyrazolo[4,3-d]pyrimidin-5-yl)-1,2,3,4-tetrahydroisoquinoline]
≥ 7.00 | COc1cccc(F)c1-c1ncc2[nH]nc(-c3cccc(N4CCOCC4)c3)c2n1 [Example 29, 4-(3-(5-(2-Fluoro-6-methoxyphenyl)-1H-pyrazolo[4,3-d]pyrimidin-3-yl)phenyl)morpholine]
